System: CT26 cells
Assay: Anticancer effect in CT26 tumor animal model
Assay type: in vivo, mice
Protocol: […] nude mice (6 weeks old, 20-25 g, male) bred in a sterile environment were used. The mice were acclimated for 2 weeks prior to starting the experiment. The mice had ad libitum access to food and water in cages maintained at a temperature of 22±2° C. and a humidity of 40-60% on a 12 h light and dark cycle during the experiment. All experimental procedures were performed according to the guidelines of the Institutional Animal Care and Use Committee of the Korea Institute of Science and Technology.
Colon cancer was induced in the male nude mice. To this end, 1×10^6 CT26 cells were subcutaneously inoculated into the left thigh of each mouse to construct a tumor animal model. Thereafter, the tumor was allowed to grow until its volume reached ˜200-250 mm^3 prior to the experiment. For sample administration, the mice were randomly divided into 4 groups, 24 animals per group. In a control (“Con”), animals were administered intravenously PBS at a concentration of 5 mg/kg twice on days 0 and 2. In a DOX-administered group, animals were administered intravenously doxorubicin (DOX) at a concentration of 5 mg/kg twice on days 0 and 2. In a VPF(+L)-administered group, animals were administered intravenously verteporfin (VPF) at a concentration of 5 mg/kg twice on days 0 and 2 and exposed by irradiation with visible light using a 671 nm laser at 40 mW for 250 sec. In an LT-NPs(-L)-administered group, animals were administered intravenously the self-assembled nanoparticles (LT-NPs) at a concentration of 5 mg/kg twice on days 0 and 2. In an LT-NPs(+L)-administered group, animals were administered intravenously the self-assembled nanoparticles (LT-NPs) at a concentration of 5 mg/kg twice on days 0 and 2 and exposed by irradiation with visible light using a 671 nm laser at 40 mW for 250 sec.
Changes in tumor volume (maximum diameter x minimum diameter^2×0.53) in the groups were measured every 2 days for a total of 0-25 days. After 7 days, blood was harvested from each group and analyzed for HSP70, HMGB1, immunogenic apoptotic cancer cells, mature dendritic cells, activated T cells, and IFN-γ levels.
9 h after drug administration, cancer tissues were excised from each group. Each cancer tissue was sectioned to a thickness of 10 μm, washed twice with DBPS, and stained with DAPI in the dark for 15 min. The section was imaged using a Leica TCS SP8 focal microscope (Leica Microsystems GmbH).
Immune cells infiltrated into cancer cells in each group were analyzed. After 7 days, animals in each group were euthanized under anesthesia and cancer tissues were collected. Monocytes were isolated using a tumor dissociation kit (Miltenyi Biotec) according to the manufacturer's protocol. Next, the monocytes were incubated with Fc block for 5 min to avoid non-specific binding and stained with antibodies for 1 h to determine the proportions of i) immunogenic apoptotic cancer cells (CD45 and CRT staining), ii) activated T cells (CD45, CD3, and CD8 staining), and iii) mature dendritic cells (CD11c, CD40, and CD86 staining) in the cancer tissues.

[1] = after 7 days, +L, Western blotting, versus other groups

C=CC1=C(C)/C2=C/C3=NC(Cc4[nH]c(c(CCCCC(=O)OC)c4C)CC4N=C(CC1N2)C(C)=C4CCC(=O)N[C@H](Cc1ccccc1)C(=O)N[C@@H](CCCNC(=N)N)C(=O)N[C@H](CCCNC(=N)N)C(=O)NCC(=O)NC1C[C@@H](OC2C[C@](O)(C(=O)CO)Cc4c(O)c5c(c(O)c42)C(=O)c2c(OC)cccc2C5=O)O[C@@H](C)[C@H]1O)[C@@]1(C)C3=CC=C(C(=O)OC)[C@@H]1C(=O)OC (some centres unmarked) [LT-NPs, VPF-FRRG(SEQ ID NO: 1)-DOX]
number of animals cured (5 mg/kg i.v. days 0 and 2, +L): 3
growth of cancer cells (tumor volume) (5 mg/kg i.v. days 0 and 2, +L (671 nm laser 40 mW 250 sec), versus other groups): significantly reduced
proportion of activated T cells in cancer tissues (after 7 days, +L): significantly higher than those in the other groups
proportion of immunogenic apoptotic cancer cells in cancer tissues (after 7 days, +L): significantly higher than those in the other groups
proportion of mature dendritic cells in cancer tissues (after 7 days, +L): significantly higher than those in the other groups
expression level of HMGB1 [1]: significantly high
expression level of HSP70 [1]: significantly high
degree of apoptosis in cancer cells (after 7 days, +L, versus other groups): significantly high

— patent US11833204B2, “Visible light-activatable nanoparticles for cancer immunotherapy and use thereof” (KOREA INSTITUTE OF SCIENCE AND TECHNOLOGY, priority 2021, dated 2023)
